Calls of active or inactive are those of the source. The rule behind the calls is not given here.
molecular target: Genome polyprotein (Dengue virus type 2 (strain 16681-PDK53)) (UniProt P29991); test: Dengue-2 NS5 guanylylation inhibitors, dose response, biochemical, secondary assay (AID 623863); conditions: Dengue-2 NS5 guanylylation inhibition
Sequence (P29991 whole entry, looked up): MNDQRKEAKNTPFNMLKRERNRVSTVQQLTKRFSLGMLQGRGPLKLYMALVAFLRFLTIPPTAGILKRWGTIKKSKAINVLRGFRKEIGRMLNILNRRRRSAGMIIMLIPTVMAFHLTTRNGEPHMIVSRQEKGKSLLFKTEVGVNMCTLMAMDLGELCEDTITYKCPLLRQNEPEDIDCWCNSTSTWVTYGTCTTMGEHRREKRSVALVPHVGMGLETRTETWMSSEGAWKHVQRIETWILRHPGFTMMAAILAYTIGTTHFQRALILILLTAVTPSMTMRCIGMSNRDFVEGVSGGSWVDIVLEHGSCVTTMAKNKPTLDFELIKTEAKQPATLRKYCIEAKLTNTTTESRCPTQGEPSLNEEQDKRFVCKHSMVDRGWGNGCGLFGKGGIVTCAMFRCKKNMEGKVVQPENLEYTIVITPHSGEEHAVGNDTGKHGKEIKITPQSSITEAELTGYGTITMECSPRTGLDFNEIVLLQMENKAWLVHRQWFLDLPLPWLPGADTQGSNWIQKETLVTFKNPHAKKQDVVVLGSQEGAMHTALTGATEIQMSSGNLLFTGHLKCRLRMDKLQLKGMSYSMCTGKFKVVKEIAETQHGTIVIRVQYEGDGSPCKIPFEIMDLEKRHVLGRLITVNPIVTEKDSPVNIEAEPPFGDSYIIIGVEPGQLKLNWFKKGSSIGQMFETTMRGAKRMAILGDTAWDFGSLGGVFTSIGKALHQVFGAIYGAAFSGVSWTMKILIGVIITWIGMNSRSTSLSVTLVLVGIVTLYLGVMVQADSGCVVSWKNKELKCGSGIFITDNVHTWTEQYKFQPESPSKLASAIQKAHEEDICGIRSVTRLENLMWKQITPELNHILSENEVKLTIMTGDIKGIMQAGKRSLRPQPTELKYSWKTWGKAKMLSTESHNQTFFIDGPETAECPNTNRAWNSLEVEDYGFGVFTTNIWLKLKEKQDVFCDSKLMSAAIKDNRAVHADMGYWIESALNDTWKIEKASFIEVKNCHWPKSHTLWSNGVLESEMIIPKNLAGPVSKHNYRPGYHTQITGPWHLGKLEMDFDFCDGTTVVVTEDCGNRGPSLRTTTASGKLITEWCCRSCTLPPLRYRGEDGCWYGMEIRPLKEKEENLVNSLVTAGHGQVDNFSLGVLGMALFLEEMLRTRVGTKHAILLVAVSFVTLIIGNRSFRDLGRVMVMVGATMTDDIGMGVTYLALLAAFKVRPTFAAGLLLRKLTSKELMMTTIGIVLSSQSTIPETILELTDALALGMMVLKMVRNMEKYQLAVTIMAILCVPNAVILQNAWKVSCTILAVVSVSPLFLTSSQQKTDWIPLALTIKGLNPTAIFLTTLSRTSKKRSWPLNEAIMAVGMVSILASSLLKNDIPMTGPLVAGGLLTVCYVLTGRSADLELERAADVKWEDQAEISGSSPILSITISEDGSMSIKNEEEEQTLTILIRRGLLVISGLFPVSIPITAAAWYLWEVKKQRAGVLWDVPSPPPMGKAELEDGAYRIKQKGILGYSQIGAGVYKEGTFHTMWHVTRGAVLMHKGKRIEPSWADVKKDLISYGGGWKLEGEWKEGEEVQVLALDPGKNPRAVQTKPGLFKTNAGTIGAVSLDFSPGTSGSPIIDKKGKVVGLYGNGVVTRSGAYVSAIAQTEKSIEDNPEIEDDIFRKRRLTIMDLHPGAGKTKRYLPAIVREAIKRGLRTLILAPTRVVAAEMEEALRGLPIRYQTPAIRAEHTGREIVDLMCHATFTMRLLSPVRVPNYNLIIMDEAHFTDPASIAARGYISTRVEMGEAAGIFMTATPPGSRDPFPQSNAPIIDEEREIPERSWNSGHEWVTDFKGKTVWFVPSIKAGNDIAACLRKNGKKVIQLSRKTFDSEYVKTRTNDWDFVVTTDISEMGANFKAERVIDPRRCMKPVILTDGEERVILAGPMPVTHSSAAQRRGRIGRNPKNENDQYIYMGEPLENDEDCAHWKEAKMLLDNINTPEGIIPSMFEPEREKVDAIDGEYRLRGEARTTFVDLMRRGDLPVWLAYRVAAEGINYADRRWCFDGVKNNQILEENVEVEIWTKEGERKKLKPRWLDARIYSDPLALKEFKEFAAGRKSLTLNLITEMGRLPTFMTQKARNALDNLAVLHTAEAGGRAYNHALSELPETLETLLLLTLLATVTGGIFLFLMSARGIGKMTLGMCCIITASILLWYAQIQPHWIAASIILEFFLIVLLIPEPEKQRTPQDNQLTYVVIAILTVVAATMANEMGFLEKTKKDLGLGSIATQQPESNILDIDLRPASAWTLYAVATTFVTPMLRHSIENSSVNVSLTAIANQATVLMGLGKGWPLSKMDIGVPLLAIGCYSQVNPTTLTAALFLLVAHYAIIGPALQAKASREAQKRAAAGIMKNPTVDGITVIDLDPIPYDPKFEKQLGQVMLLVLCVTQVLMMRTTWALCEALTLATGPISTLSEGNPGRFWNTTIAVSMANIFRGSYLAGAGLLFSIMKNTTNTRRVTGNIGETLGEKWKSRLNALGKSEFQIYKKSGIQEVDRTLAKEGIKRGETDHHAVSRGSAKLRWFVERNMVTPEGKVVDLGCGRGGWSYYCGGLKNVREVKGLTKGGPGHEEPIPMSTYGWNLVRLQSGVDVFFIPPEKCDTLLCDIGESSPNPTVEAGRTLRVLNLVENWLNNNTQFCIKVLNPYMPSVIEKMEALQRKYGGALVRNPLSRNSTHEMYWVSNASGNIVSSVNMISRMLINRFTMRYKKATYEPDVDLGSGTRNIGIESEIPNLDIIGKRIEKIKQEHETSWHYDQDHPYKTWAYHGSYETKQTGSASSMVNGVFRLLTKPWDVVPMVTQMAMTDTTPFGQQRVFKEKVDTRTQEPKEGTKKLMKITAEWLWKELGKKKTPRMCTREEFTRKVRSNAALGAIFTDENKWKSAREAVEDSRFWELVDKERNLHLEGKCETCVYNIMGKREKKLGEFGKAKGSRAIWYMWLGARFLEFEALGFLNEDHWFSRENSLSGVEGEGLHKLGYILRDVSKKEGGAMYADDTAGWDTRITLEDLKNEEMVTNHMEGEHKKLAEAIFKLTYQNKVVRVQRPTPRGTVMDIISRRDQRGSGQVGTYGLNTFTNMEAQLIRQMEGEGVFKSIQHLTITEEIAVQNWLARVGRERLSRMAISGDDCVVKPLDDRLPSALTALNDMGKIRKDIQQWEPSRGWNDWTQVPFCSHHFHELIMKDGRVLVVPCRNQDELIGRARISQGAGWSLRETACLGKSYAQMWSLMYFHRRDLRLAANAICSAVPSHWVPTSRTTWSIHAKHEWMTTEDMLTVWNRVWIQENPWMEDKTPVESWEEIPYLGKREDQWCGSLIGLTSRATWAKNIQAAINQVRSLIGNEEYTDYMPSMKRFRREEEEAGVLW

Row | SMILES | IC50 [µM]
1 | O=S(=O)(Nc1cc(Sc2ccccc2)c(O)c2ccccc12)c1ccc(F)cc1 | 47.9
2 | O=C(O)CSc1cc(NS(=O)(=O)c2ccc(Cl)cc2)c2ccccc2c1O | 7.89
3 | O=[N+]([O-])c1cccc(S(=O)(=O)Nc2cc(Sc3nc4ccccc4s3)c(O)c3ccccc23)c1 | 18.3
4 | Cn1c(=O)c2[nH]c(-c3ccc(Cl)cc3)c(O)c2n(C)c1=O | 7.51
5 | Cc1ccc(S(=O)(=O)Nc2cc(Sc3nc(C)cc(C)n3)c(O)c3ccccc23)cc1 | 46
6 | O=C(O)CSc1cc(NS(=O)(=O)c2cccc([N+](=O)[O-])c2)c2ccccc2c1O | 3.33
7 | O=C(O)CSc1cc(NS(=O)(=O)c2ccc(Br)cc2)c2ccccc2c1O | 2.37
8 | O=[N+]([O-])c1cccc(S(=O)(=O)Nc2cc(SCc3ccccc3)c(O)c3ccccc23)c1 | 3.03
9 | O=S(=O)(Nc1cc(SCc2ccccc2)c(O)c2ccccc12)c1ccc(Cl)cc1 | 4.23

same assay, conditions: Dengue-2 NS5 guanylylation inhibition, at 50 µM (top of the series)

Row | SMILES | inhibition
10 | O=S(=O)(Nc1cc(Sc2ncn[nH]2)c(O)c2ccccc12)c1ccc(F)cc1 | inactive
11 | Cc1cc(C)c(S(=O)(=O)Nc2cc(SCC(=O)O)c(O)c3ccccc23)c(C)c1 | inactive
12 | Cc1ccc(S(=O)(=O)Nc2cc(SCC(=O)O)c(O)c3ccccc23)cc1 | inactive
13 | Cc1cc(F)ccc1S(=O)(=O)Nc1cc(SCC(=O)O)c(O)c2ccccc12 | inactive
14 | O=C(O)CSc1cc(NS(=O)(=O)c2ccc(F)cc2)c2ccccc2c1O | inactive
